In this assay the target is T1, human carbonic anhydrase isozyme II (hCAII) (Homo sapiens, UniProt P00918).
T1 construct: gene CA2
Kind of assay: in vitro esterase assay (4-NPA hydrolysis, […] nm); also yeast-based hCAII assay. It counts as biochemical.

The values that follow come from paper PMC9728158, “Two Flavonoid-Based Compounds from Murraya paniculata as Novel Human Carbonic Anhydrase Isozyme II Inhibitors Detected by a Resazurin Yeast-Based Assay” (Journal of Microbiology and Biotechnology, 2019).

As to `COc1cc(-c2cc(=O)c3c(OC)c(OC)c(OC)c(OC)c3o2)cc(OC)c1OC` [compound 4, 5,6,7,8,3′,4′,5′-heptamethoxyflavone], the IC50 (in general, the concentration needed to halve the response being measured) stood at 24 µM.

The molecule `COc1cc(-c2oc3c(OC)c(OC)cc(OC)c3c(=O)c2OC)cc(OC)c1OC` [compound 9, 3,5,7,8,3′,4′,5′-Heptamethoxyflavone] came in with an IC50 of 34.3 µM.
